Results as given in patent US20100267561A1, “HERBICIDAL PYRIDAZINONE DERIVATIVES” (priority 2007, published 2010).
Where two headings read alike, the source gives them in different places.

Assays:
Format in all cases: in vivo
rice (Oryza sativa) = assay: Test B flooded paddy test plant response; settings: Oryza sativa, read-out: Plant response rating, Rice
Method in brief: (§1)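 Paddy-water application to 2-leaf plants in pots held under 3 cm of flooding; response is a 0–100 visual control rating against controls after 13 to 15 days, and a dash marks a missing result.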

[1] = system: ducksalad (Heteranthera limosa); assay: Test B flooded paddy test plant response; settings: Heteranthera limosa, read-out: Plant response rating, Ducksalad
Method in brief: as §1

[2] = system: johnsongrass (Sorghum halepense); assay: Test B pre-/postemergence plant response; settings: for Johnsongrass plant response rating: 8 g ai/ha; for pest or weed control at 16 g/ha / pest or weed control at 31 g/ha / pest or weed control at 62 g/ha: Sorghum halepense, read-out: Plant response rating, Johnsongrass; for pest or weed control at 16 g/ha: 16 g ai/ha; for pest or weed control at 31 g/ha: 31 g ai/ha; for pest or weed control at 62 g/ha: 62 g ai/ha
Method in brief: (§2)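 Visual scoring from 0 (no effect) to 100 (complete control) against untreated controls was done 13 to 15 days after greenhouse treatment. Chemicals were formulated in a surfactant-containing non-phytotoxic solvent and applied to soil preemergence or to 1- to 4-leaf (2-18 cm) plants postemergence.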

[3] = system: goosegrass (Eleusine indica); assay: Test B pre-/postemergence plant response; settings: for Goosegrass plant response rating: 8 g ai/ha; for pest or weed control at 16 g/ha / pest or weed control at 31 g/ha / pest or weed control at 62 g/ha: Eleusine indica, read-out: Plant response rating, Goosegrass; for pest or weed control at 16 g/ha: 16 g ai/ha; for pest or weed control at 31 g/ha: 31 g ai/ha; for pest or weed control at 62 g/ha: 62 g ai/ha
Method in brief: as §2

[4] = system: velvetleaf (Abutilon theophrasti); assay: Test B pre-/postemergence plant response; settings: for Velvetleaf plant response rating: 8 g ai/ha; for pest or weed control at 16 g/ha: 16 g ai/ha; for pest or weed control at 62 g/ha: 62 g ai/ha
Method in brief: as §2

[5] = system: giant foxtail (Setaria faberii); assay: Test B pre-/postemergence plant response; settings: for Foxtail, Giant plant response rating: 8 g ai/ha; for pest or weed control at 16 g/ha / pest or weed control at 31 g/ha / pest or weed control at 62 g/ha: Setaria faberi, read-out: Plant response rating, Foxtail, Giant; for pest or weed control at 16 g/ha: 16 g ai/ha; for pest or weed control at 31 g/ha: 31 g ai/ha; for pest or weed control at 62 g/ha: 62 g ai/ha
Method in brief: as §2

[6] = system: common (oilseed) sunflower (Helianthus annuus); assay: Test B pre-/postemergence plant response; settings: Preemergence
Method in brief: as §2

[7] = system: eastern black (E.B.) nightshade (Solanum ptycanthum); assay: Test B pre-/postemergence plant response; settings: Preemergence
Method in brief: as §2

[8] = Flood (flooded paddy test), 62 g ai/ha, scale 0 to 100, 0 no effect, 100 complete control
[9] = Flood (flooded paddy test), 250 g ai/ha, scale 0 to 100, 0 no effect, 100 complete control
[10] = Flood, 31 g ai/ha, scale 0 to 100
[11] = post-emergence, Postemergence, scale 0 to 100
[12] = post-emergence, Postemergence, scale 0 to 100, 0 no effect, 100 complete control
[13] = pre-emergence, Preemergence, scale 0 to 100 (0 no effect, 100 complete control)
[14] = pre-emergence, Preemergence, 0 to 100 scale, 0 no effect, 100 complete control
[15] = pre-emergence, Preemergence, scale 0 to 100

For `CCc1c(C)c(-c2ccc(Cl)cc2)nn1-c1c(O)cnn(C)c1=O` [Compound 26, 4-[3-(4-chlorophenyl)-5-ethyl-4-methyl-1H-pyrazol-1-yl]-5-hydroxy-2-methyl-3(2H)-pyridazinone], the plant injury at 62 g/ha (rice (Oryza sativa); [8]) was 0%, the plant injury at 125 g/ha (rice (Oryza sativa); Flood (flooded paddy test), 125 g ai/ha, scale 0 to 100, 0 no effect, 100 complete control) was 0% and the plant injury at 250 g/ha (rice (Oryza sativa); [9]) was 0%. The plant injury at 31 g/ha (rice (Oryza sativa); [10]) was 0%, the pest or weed control at 62 g/ha [1, 8] was 50% and the pest or weed control at 250 g/ha [1, 9] was 70%. For the same compound, the pest or weed control at 31 g/ha [1, 10] was 40%, the “Johnsongrass plant response rating” value ([2]; postemergence, 0-100 scale) was 0 and the “Johnsongrass plant response rating” value ([2]; Preemergence, scale 0 to 100) was 0. For the same compound, the pest or weed control at 16 g/ha [2, 11] was 0%, the pest or weed control at 31 g/ha [2, 12] was 20% and the pest or weed control at 62 g/ha [2, 12] was 20%. The pest or weed control at 16 g/ha [2, 13] was 0%, the pest or weed control at 31 g/ha [2, 14] was 0% and the pest or weed control at 62 g/ha [2, 15] was 50%. For the same compound, the “Goosegrass plant response rating” value ([3]; postemergence, 0-100 scale) was 0, the pest or weed control at 16 g/ha [3, 11] was 0% and the pest or weed control at 31 g/ha [3, 12] was 0%. The pest or weed control at 62 g/ha [3, 12] was 20%, the pest or weed control at 16 g/ha [3, 13] was 50% and the pest or weed control at 31 g/ha [3, 14] was 70%. For the same compound, the pest or weed control at 62 g/ha [3, 15] was 95%, the “Goosegrass plant response rating” value ([3]; Preemergence, scale 0 to 100) was 50 and the “Velvetleaf plant response rating” value ([4]; postemergence, 0-100 scale) was 0. The pest or weed control at 16 g/ha ([4]; Abutilon theophrasti, post-emergence, Postemergence, scale 0 to 100, read-out: Plant response rating, Velvetleaf) was 0%, the pest or weed control at 62 g/ha ([4]; Abutilon theophrasti, post-emergence, Postemergence, scale 0 to 100, 0 no effect, 100 complete control, read-out: Plant response rating, Velvetleaf) was 0% and the pest or weed control at 16 g/ha ([4]; Abutilon theophrasti, pre-emergence, Preemergence, scale 0 to 100 (0 no effect, 100 complete control), read-out: Plant response rating, Velvetleaf) was 0%. The pest or weed control at 31 g/ha ([4]; Abutilon theophrasti, pre-emergence, Preemergence, 31 g ai/ha, 0 to 100 scale, 0 no effect, 100 complete control, read-out: Plant response rating, Velvetleaf) was 0%, the pest or weed control at 62 g/ha ([4]; Abutilon theophrasti, pre-emergence, Preemergence, scale 0 to 100, read-out: Plant response rating, Velvetleaf) was 0% and the “Velvetleaf plant response rating” value ([4]; Preemergence, scale 0 to 100) was 0. The “Foxtail, Giant plant response rating” value ([5]; postemergence, 0-100 scale) was 80, the “Foxtail, Giant plant response rating” value ([5]; Preemergence, scale 0 to 100) was 65 and the pest or weed control at 16 g/ha [5, 11] was 95%. It also gave a pest or weed control at 31 g/ha [5, 12] of 95%, a pest or weed control at 62 g/ha [5, 12] of 100% and a pest or weed control at 16 g/ha [5, 13] of 95%. For the same compound, the pest or weed control at 31 g/ha [5, 14] was 100%, the pest or weed control at 62 g/ha [5, 15] was 100% and the pest or weed control at 16 g/ha ([6]; Helianthus annuus, pre-emergence, 16 g ai/ha, scale 0 to 100 (0 no effect, 100 complete control), read-out: Plant response rating, Sunflower) was 0%. The pest or weed control at 31 g/ha ([6]; Helianthus annuus, pre-emergence, 31 g ai/ha, 0 to 100 scale, 0 no effect, 100 complete control, read-out: Plant response rating, Sunflower) was 0%, the pest or weed control at 62 g/ha ([6]; Helianthus annuus, pre-emergence, 62 g ai/ha, scale 0 to 100, read-out: Plant response rating, Sunflower) was 0% and the “Sunflower plant response rating” value ([6]; 8 g ai/ha, scale 0 to 100) was 0. The “Nightshade, E. B. plant response rating” value ([7]; 8 g ai/ha, scale 0 to 100) was 0, the pest or weed control at 16 g/ha ([7]; Solanum, pre-emergence, 16 g ai/ha, scale 0 to 100 (0 no effect, 100 complete control), read-out: Plant response rating, Nightshade, E. B.) was 0% and the pest or weed control at 31 g/ha ([7]; Solanum, pre-emergence, 31 g ai/ha, 0 to 100 scale, 0 no effect, 100 complete control, read-out: Plant response rating, Nightshade, E. B.) was 0%. The pest or weed control at 62 g/ha ([7]; Solanum, pre-emergence, 62 g ai/ha, scale 0 to 100, read-out: Plant response rating, Nightshade, E. B.) was 0%.
